# Like-named read-outs stand apart in the source and are kept apart here.
# Assays:
# [1] = tested on: PD20 cells, deficient in FANCD2 (FANCD2−/−) or complemented with FANCD2; assay: Short-term viability assay, PD20 cells; assay type: cell-based, human; settings: PD20 FANCD2−/− vs +FANCD2
# Description: FIGS. 8A-8K. (FIG. 8A) Change in percent cells with 1 micronuclei from baseline (DMSO control) after treatment as in FIGS. 5A and 5C. […] (FIG. 8B) Short-term viability assay curves for KL-50 in PD20 cells, deficient in FANCD2 (FANCD2−/−) or complemented with FANCD2 (+FANCD2). (FIG. 8C) Short-term viability assay curves for KL-50 in PEO4 (BRCA2+) and PEO1 (BRCA2−/−) cells pre-treated with 0.01% DMSO control or 10 μM O^6BG (+O^6BG) for 1 h prior to KL-50 addition. (FIG. 8D) Short-term viability assay curves for KL-50 in DLD1 BRCA2+/− and BRCA2−/−cells pre-treated with 0.01% DMSO control or 10 μM O^6BG (+O^6BG) for 1 h prior to KL-50 addition. For FIGS. 8B-8D, points, mean; error bars, SD; n=3 technical replicates. […] Change in percent cells with 1 micronuclei from baseline (DMSO control) after treatment with olaparib (10 μM) for 48 h in LN229 MGMT+/−, MMR+/−cells. […] Western blot analysis of FANCD2 ubiquitination in LN229 MGMT+/−, MMR+/−cells and PD20 FANCD2-deficient cells, complemented with empty vector (FANCD2+EV), wildtype FANCD2 (PD20+FD2) or ubiquitination-mutant FANCD2 (PD20+KR). The % FANCD2 ubiquitination (% FANCD2 Ub) is quantified as the background-corrected integrated band intensity of the upper band divided by the sum of the background-corrected integrated band intensities of the upper and lower bands. The fold change in % FANCD2 ubiquitination is presented for each cell line relative to DMSO-treated cells. Vinculin serves as loading control. For 8J-8K, points, mean; error bars, SD; n=3 technical replicates.
# (§1) Short-term Cell Viability Assay. Cells were seeded in 96-well plates at 1000 or 2000 cells/well and allowed to adhere at 23° C. for 60 min and then incubated overnight at 37° C. […] Cells were imaged on a Cytation 3 imaging reader (BioTek) and quantified using CellProfiler software. For in vitro short-term growth delay experiments, IC50 values were determined from the nonlinear regression equation, [inhibitor] vs normalized response with variable slope.
# [2] = tested on: LN229 MGMT+/MMR+ cells; assay: Short-term cell viability assay, LN229 MGMT+/MMR+; assay type: cell-based; settings: Homo sapiens, read-out: IC50 against LN229 cell lines, MGMT+ MMR+
# Description: (§2) LN229 MGMT- and MGMT+ cell lines were a gift from B. Kaina (Johannes Gutenberg University Mainz, Mainz, Germany) and grown in Gibco® Duilbecco's Modified Eagle Medium with 10% fetal bovine serum (DMEM). For each compound tested, the relationship between MGMT status and MMR status and compound activity, in terms of IC50 values ([…]), was determined by the following method. On day 1, LN229 isogenic cells of varying MGMT and MMR status were seeded in 96 well format at a density of 2000 cells/well in 100 μL of DMEM media and allowed to adhere overnight. On day 2, a drug master plate was made with 100×the desired maximal concentration of test compound and serially diluted by 2 until 100×the minimal desired concentration, with one DMSO control. Then daughter plates were created with varied concentrations from 3-times the minimal concentration to 3-times the maximal desired concentration. Afterwards, 50 μL of daughter drug plate was added to 100 μL of the seeded cells for a final concentration of 1×in triplicate. Cells were allowed to grow for 6 days. On day 7, the cells were fixed, and stained with Hoechst nuclear dye and imaged to determine growth inhibition.
# (§3) For each compound tested, the relationship between MGMT status and MMR status and compound activity, in terms of IC50 values (in μM), was determined. In addition, for each compound, the therapeutic index (TI) was calculated, according to the equation MGMT TI=IC50 (MGMT+/MMR+) divided by IC50 (MGMT−/MMR+). The T1 indicates the efficacy of a compound in treating the targeted MGMT-cancer cells as compared to potential for the same compound to damage, or have adverse effects against, normal cells which are MGMT+cells, The higher the value of the TI, the safer the compound is. […] MMR RI (resistance index)=IC50 (MGMT−/MMR−) divided by IC50 (MGMT−/MMR+). The higher the value of the RI, the less likely that resistance to the compound will develop.
# (§4) Short-term Cell Viability Assay. Cells were seeded in 96-well plates at 1000 or 2000 cells/well and allowed to adhere at 23° C. for 60 min and then incubated overnight at 37° C. Cells were treated with indicated concentrations of compounds in triplicate for 4-6 days prior to fixation with 3.7% paraformaldehyde and nuclear staining with 1 μg/mL Hoechst 33342 dye. Cells were imaged on a Cytation 3 imaging reader (BioTek) and quantified using CellProfiler software. For in vitro short-term growth delay experiments, IC50 values were determined from the nonlinear regression equation, [inhibitor] vs normalized response with variable slope.
# [3] = tested on: LN229 MGMT+/MMR− cells; assay: Short-term cell viability assay, LN229 MGMT+/MMR- (shRNA targeting MSH2); assay type: cell-based; settings: Homo sapiens
# Description: as §2, §3, §4
# [4] = tested on: LN229 MGMT−/MMR+ cells; assay: Short-term cell viability assay, LN229 MGMT-/MMR+; assay type: cell-based, human; settings: for IC50: Homo sapiens, read-out: IC50 against LN229 cell lines, MGMT− MMR+; for TI / RI, in words: LN229 isogenic lines; for MGMT− TI (therapeutic index): IC50 (MGMT+/MMR+) divided by IC50 (MGMT−/MMR+)
# Description: as §2, §3, §4
# [5] = tested on: LN229 MGMT−/MMR− cells; assay: Short-term cell viability assay, LN229 MGMT-/MMR- (shRNA targeting MSH2); assay type: cell-based, human; settings: for IC50: Homo sapiens, read-out: IC50 against LN229 cell lines, MGMT− MMR−; for activity in MGMT−/MMR− cells, in words: LN229 MGMT−/MMR−; for MGMT− RI (resistance index): IC50 (MGMT−/MMR−) divided by IC50 (MGMT−/MMR+)
# Description: as §2
# For each compound tested, the relationship between MGMT status and MMR status and compound activity, in terms of IC50 values (in μM), was determined. In addition, for each compound, the therapeutic index (TI) was calculated, according to the equation MGMT TI=IC50 (MGMT+/MMR+) divided by IC50 (MGMT−/MMR+). […] MMR RI (resistance index)=IC50 (MGMT−/MMR−) divided by IC50 (MGMT−/MMR+).
# as §1
# [6] = tested on: MGMT+ LN229 cells; assay: Clonogenic survival assay, LN229 MGMT+ cells; assay type: cell-based, human
# Description: (§5) In vitro clonogenic survival assays (CSAs) were performed using four isogenic LN229 glioblastoma cell lines.
# (§6) Clonogenic Cell Survival Assay. Cells of each line were pretreated with the test drug in culture for 48-72 hours at the specified dilutions. The cells were then immediately seeded in six-well plates in triplicate at three-fold dilutions, ranging from 9000 to 37 cells per well. Depending on colony size, these plates were kept in the incubator for 10 to 14 days. After incubation, colonies were washed in phosphate-buffered saline (PBS) and stained with crystal violet. Colonies were counted by hand. Counts were normalized to plating efficiency of the corresponding treatment condition.
# [7] = tested on: MGMT− LN229 cells; assay: Clonogenic survival assay, LN229 MGMT- cells; assay type: cell-based, human
# Description: as §5, §6
# [8] = tested on: four isogenic LN229 glioblastoma cell lines; assay: Short-term cell viability assays, statements across the isogenic lines; assay type: cell-based, human; settings: regardless of MMR status
# Description: as §2, §3, §4
# [9] = tested on: MGMT−/MMR− cells; assay: IR alkaline comet assay, LN229 MGMT-/MMR-, time course; assay type: cell-based, human; settings: time points 2-24 h
# Description: The IR alkaline comet assay, adapted for ICL detection was performed to determine if ICLs were formed in MGMT-cells treated with KL-50. In this assay, cells were sequentially exposed to genotoxins and ionizing radiation, and then analyzed by single cell alkaline gel electrophoresis. Attenuation of the IR-induced comet tail is indicative of ICL formation.
# IR Alkaline Comet Assay. This assay was performed utilizing the CometAssay™ Kit (Trevigen) according to the alkaline assay protocol, with the addition of slide irradiation post-lysis. Cells were trypsinized, washed with 1×PBS, added to melted Comet LMAgarose (Trevigen), and spread on Trevigen CometSlides at a density of 1000 cells per sample in 50 μL. Lysis solution (Trevigen) with 10% DMSO was added overnight at 4° C. Slides were removed from lysis buffer and irradiated to 0 or 10 Gy using an XRAD 320 X-Ray System (Precision X-Ray) at 320 kV, 12.5 mA, and 50.0 cm SSD, with a 2 mm Al filter and 20 cm×20 cm collimator. Slides were then placed in alkaline buffer (200 mM NaOH, 1 mM EDTA) for 45 min, followed by electrophoresis in 850 mL alkaline buffer for 45 min at 4° C. Slides were washed and stained with SYBR gold (Invitrogen) per Trevigen assay protocol. Slides were imaged on a Cytation 3 imaging reader (BioTek), and comets were analyzed using CometScore 2.0 software (TriTek).
# [10] = LN-229, Table II, read-out: IC50 against LN229 cell lines, MGMT MMR−
# [11] = LN-229, 144 h, Table 1, 6 days growth, Hoechst nuclear count
# [12] = LN-229, 144 h, Table 1, 6 days growth, read-out: IC50 against LN229 cell lines, MGMT+ MMR−
# [13] = LN-229, 144 h, Table 1, 6 days growth
compound,measurement,setting,value
"CO[C@@]12[C@H](COC(N)=O)C3=C(C(=O)C(C)=C(N)C3=O)N1C[C@@H]1N[C@@H]12 [MMC, Mitomycin C]",sensitivity of FANCD2-deficient cells,[1],hypersensitivity to crosslinking agents in FANCD2−/−cells
"O=NN(CCCl)C(=O)NC1CCCCC1 [CCNU, 1-(2-chloroethyl)-3-cyclohexyl-1-nitrosourea, reference compound]",IC50,"[2]; LN-229, Table II",21.6 ± 3.2 µM
same,IC50,[3]; [10],26.8 ± 7.3 µM
same,IC50,"[4]; LN-229, Table II",6.3 ± 0.3 µM
same,"TI / RI, in words",[4],poor TI
same,MGMT− TI (therapeutic index),[4]; Table II,3.4
same,IC50,"[5]; LN-229, Table II",4.2 ± 0.2 µM
same,"activity in MGMT−/MMR− cells, in words",[5],effective against MGMT−/MMR− cells
same,MGMT− RI (resistance index),[5]; Table II,0.7
same,"clonogenic survival, activity in MGMT+ cells",[6]; irrespective of MMR status,cytotoxic to MGMT+cells
same,"clonogenic survival, activity in MMR− cells",[7]; isogenic cells lacking MMR,effective in MMR− cells
"NC(=O)c1nc[nH]c1/N=N/N(CCF)C(=O)Cc1ccccc1 [Compound E2, (E)-5-(3-(2-fluoroethyl)-3-(2-phenylacetyl)triaz-1-en-1-yl)-1H-imidazole-4-carboxamide]",IC50,[2]; [11],> 100 µM
same,IC50,[3]; [12],72 ± 30 µM
same,IC50,[4]; [13],28 ± 1 µM
same,IC50,[5]; [13],21 ± 1 µM
"CN(CCF)/N=N/c1nc[nH]c1C(N)=O [Compound E5, 4-[(1E)-3-(2-fluoroethyl)-3-methyltriaz-1-en-1-yl]-1H-imidazole-5-carboxamide]",IC50,"[2]; LN-229, 144 h",> 199 µM
same,IC50,"[3]; LN-229, 144 h, read-out: IC50 against LN229 cell lines, MGMT+ MMR−",> 100 µM
same,IC50,"[4]; LN-229, 144 h",14.2 ± 1 µM
same,IC50,"[5]; LN-229, 144 h",> 100 µM
NC(=O)c1nc[nH]c1/N=N/N(CCF)C(=O)OCc1ccccc1 [Compound E4],IC50,[2]; [11],14 ± 1 µM
same,IC50,[3]; [12],11 ± 1 µM
same,IC50,[4]; [13],8 ± 1 µM
same,IC50,[5]; [13],17 ± 1 µM
"NC(=O)c1[nH]cnc1/N=N/NCCF [Compound E1, 5-[(1E)-3-(2-fluoroethyl)triaz-1-en-1-yl]-1H-imidazole-4-carboxamide]",IC50,[2]; [11],> 100 µM
same,IC50,[3]; [12],> 100 µM
same,IC50,[4]; [13],24 ± 2 µM
same,IC50,[5]; [13],22 ± 1 µM
same,"activity in MGMT−/MMR− cells, in words",[5],exquisite sensitivity
same,"activity in MGMT+ cells, in words",[8],limited activity
same,surviving fraction of MGMT+ cells,[6]; at concentrations as high as 1000 μM of E1,above 0.1
same,surviving fraction of MGMT+ cells,"[6]; at the same concentration (less than 100 μM of E1), regardless of MMR status",~1.0
same,surviving fraction of MGMT− cells,"[7]; at less than 100 μM of E1, regardless of MMR status",dropped sharply
"NC(=O)c1ncn2c(=O)n(CCCl)nnc12 [MTZ, 3-(2-chloroethyl)-4-oxoimidazo[5,1-d][1,2,3,5]tetrazine-8-carboxamide, reference compound]",IC50,"[2]; LN-229, Table II",61.9 ± 4.7 µM
same,IC50,[3]; [10],50.8 ± 4.2 µM
same,IC50,"[4]; LN-229, Table II",9 ± 0.4 µM
same,"TI / RI, in words",[4],poor TI
same,MGMT− TI (therapeutic index),[4]; Table II,6.9
same,IC50,"[5]; LN-229, Table II",6.9 ± 0.7 µM
same,"activity in MGMT−/MMR− cells, in words",[5],effective against MGMT−/MMR− cells
same,MGMT− RI (resistance index),[5]; Table II,0.8
same,DNA damage in unirradiated samples,[9],maximal damage at 2 h
same,"DNA mobility after IR, rate of ICL formation",[9],reduced DNA mobility within 2 h
"CC(=O)N(CCF)/N=N/c1[nH]cnc1C(N)=O [Compound E3, (E)-5-(3-acetyl-3-(2-fluoroethyl)triaz-1-en-1-yl)-1H-imidazole-4-carboxamide]",IC50,[2]; [11],> 100 µM
same,IC50,[3]; [12],> 100 µM
same,IC50,[4]; [13],40 ± 2 µM
same,IC50,[5]; [13],46 ± 4 µM
same,"activity in MGMT−/MMR− cells, in words",[5],exquisite sensitivity
same,"activity in MGMT+ cells, in words",[8],limited activity

# Reference: patent US20240294478A1, “ANTI-CANCER COMPOUNDS AND METHODS OF USE” (YALE UNIVERSITY, priority 2021, published 2024)
